Test results: US20070185115A1, “Novel ureido-and amido-pyrazolone derivatives” (Aston University, priority 2003, published 2007)
Read-outs that look alike come from different tables or passages of the source.

Experiments:
[1] = molecular target: T1, CCKB receptor (Cavia porcellus, UniProt H0VZC5); assay: 125I-CCK-8 receptor binding assay, CCKB (guinea pig cerebral cortex membranes)
T1 construct: Male guinea pig brain tissues were prepared according to the modified method described by Saita et al; from tissue; host or cells: guinea pig cerebral cortex membranes
T1 sequence (H0VZC5 1-426): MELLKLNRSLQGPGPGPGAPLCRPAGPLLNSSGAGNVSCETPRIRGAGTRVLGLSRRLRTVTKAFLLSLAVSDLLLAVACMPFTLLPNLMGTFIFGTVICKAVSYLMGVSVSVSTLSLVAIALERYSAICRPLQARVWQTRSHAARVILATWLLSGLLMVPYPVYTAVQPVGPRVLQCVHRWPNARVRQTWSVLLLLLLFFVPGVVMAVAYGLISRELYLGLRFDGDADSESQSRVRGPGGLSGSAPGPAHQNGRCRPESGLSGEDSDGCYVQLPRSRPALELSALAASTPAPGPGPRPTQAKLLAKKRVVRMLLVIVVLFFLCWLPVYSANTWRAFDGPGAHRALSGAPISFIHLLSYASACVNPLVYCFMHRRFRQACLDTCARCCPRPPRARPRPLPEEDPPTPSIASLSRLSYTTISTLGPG
Description: (§1) Pharmacological Methods—^[125]I-CCK-8 Receptor Binding Assay
(§2) CCKA and CCKB receptor binding assays were performed, by using guinea pig cerebral cortex (CCKB) or rat pancreas (CCKA). Male guinea pig brain tissues were prepared according to the modified method described by Saita et al, [(1994), Characterization of YM022: its CCKB/gastrin receptor binding profile and antagonism to CCK-8-induced Ca2+mobilization., Eur. J. PharmacoL,269, 249-254]. Pancreatic membranes were prepared in a similar way but by Charpentier et al, [(1988), Cyclic cholecystokinin analogues with high selectivity for central receptors., Proc Natl Acad Sci USA, 85, 1968-1972]. For the in vivo CCK binding assay tissues were homogenised in ice cold sucrose (0.32 M, 25 ml) for 15 strokes at 500 rpm and centrifuged at 13000 rpm for 10 mins. The supernatant was re-centrifuged at 13000 rpm for 20 mins. The resulting pellet was re-dispersed to the required volume of buffer at 500 rpm and stored in aliquots at […].
(§3) Binding was achieved using a.radioligand ^125I-Bolton-Hunter labeled CCK, NEN at 25 pM. The samples were incubated {with membranes (0.1 mg/ml)} in 20 mM Hepes, 1 mM EGTA, 5 mM MgCl2, 150 mm NaCl, 0.25 mg/ml bacitracin at pH 6.5 for 2 hrs at RT and then […] by centrifugation at 1100 rpm for 5 minutes. The membrane pellets were washed twice with water and the bound radioactivity was measured in a Packard Cobra Auto-gamma counter (B5005). All binding assays were carried out with L-365, 260 (Bock, M. G., et. al., Benzodiazepine gastrin and brain cholecystokinin receptor ligands. L-365,260, J. Med. Chem. 1989, 32, 14-24) as an internal non-specific standard. Controls (no compound) were also added. All samples were made in duplicate and repeated twice. All compounds were initially screened for percentage inhibition at 20 μm.

[2] = molecular target: T2, CCKA receptor (Rattus norvegicus, UniProt P30551); assay: 125I-CCK-8 receptor binding assay, CCKA (rat pancreas membranes); conditions: for Ratio A/B: ratio of CCKB and CCKA IC50 values
T2 construct: Pancreatic membranes were prepared in a similar way but by Charpentier et al; from tissue; host or cells: rat pancreas membranes
T2 sequence (P30551 1-444): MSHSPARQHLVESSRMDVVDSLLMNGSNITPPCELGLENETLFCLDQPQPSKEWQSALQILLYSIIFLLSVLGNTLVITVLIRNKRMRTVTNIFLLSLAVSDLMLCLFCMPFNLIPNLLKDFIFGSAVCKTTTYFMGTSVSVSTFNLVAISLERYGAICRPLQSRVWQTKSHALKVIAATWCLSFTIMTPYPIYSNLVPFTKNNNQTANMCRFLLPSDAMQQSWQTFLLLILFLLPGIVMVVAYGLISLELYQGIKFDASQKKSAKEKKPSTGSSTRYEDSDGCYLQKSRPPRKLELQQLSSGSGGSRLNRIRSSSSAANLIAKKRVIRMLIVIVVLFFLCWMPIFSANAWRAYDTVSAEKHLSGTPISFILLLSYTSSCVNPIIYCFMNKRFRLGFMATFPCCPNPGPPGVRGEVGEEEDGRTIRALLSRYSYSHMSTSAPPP
Description: as §1, §2, §3

[3] = Table 1, phenyl pyrazolinone ureas, guinea pig cerebral cortex, 125I-Bolton-Hunter CCK 25 pM, read-out: IC50 CCKB
[4] = Table 3, diphenyl pyrazolyl ureas, guinea pig cerebral cortex, 125I-Bolton-Hunter CCK 25 pM, read-out: IC50 CCKB
[5] = Table 2, phenylpyrazolinone amides, rat pancreas, 125I-Bolton-Hunter CCK 25 pM, read-out: IC50 CCKA
[6] = Table 2, phenylpyrazolinone amides, guinea pig cerebral cortex, 125I-Bolton-Hunter CCK 25 pM, read-out: IC50 CCKB
[7] = Table 3, diphenyl pyrazolyl ureas, rat pancreas, 125I-Bolton-Hunter CCK 25 pM, read-out: IC50 CCKA
[8] = Table 4, diphenyl pyrazolinone amides, rat pancreas, 125I-Bolton-Hunter CCK 25 pM, read-out: IC50 CCKA
[9] = Table 4, diphenyl pyrazolinone amides, guinea pig cerebral cortex, 125I-Bolton-Hunter CCK 25 pM, read-out: IC50 CCKB

`Cc1c(NC(=O)Nc2ccc(Br)cc2)c(=O)n(-c2ccccc2)n1C` [Example 11] gave an IC50 [1, 3] of 7 µM.
Work on `Cc1cccc(NC(=O)Nc2c(C)n(C)n(-c3ccccc3)c2=O)c1` [Example 8] yielded an IC50 [1, 3] of 5 µM.
`Cc1c(NC(=O)Nc2ccc(Cl)cc2)c(=O)n(-c2ccccc2)n1-c1ccccc1` [Example 32] showed an IC50 [1, 4] greater than 20 µM.
With `Cc1c(NC(=O)NC2CCCCC2)c(=O)n(-c2ccccc2)n1-c1ccccc1` [Example 27] the IC50 [1, 4] was 0.85 µM.
Molecule `Cc1c(NC(=O)Cc2c[nH]c3ccccc23)c(=O)n(-c2ccccc2)n1C` [Example 19] has an IC50 [2, 5] of 2 µM and an IC50 [1, 6] of 9 µM.
Molecule `Cc1c(NC(=O)c2c[nH]c3ccccc23)c(=O)n(-c2ccccc2)n1C` [Example 18] has an IC50 [2] of 2 µM and an IC50 [1] of 15 µM.
`Cc1cccc(NC(=O)Nc2c(C)n(-c3ccccc3)n(-c3ccccc3)c2=O)c1` [Example 22, N-(5-Methyl-3-oxo-1,2-diphenyl-2,3-dihydro-1H-pyrazol4-yl)N′-3-methylphenylurea] showed an IC50 [2, 7] of 0.02 µM and an IC50 [1, 4] of 0.025 µM.
In the case of `Cc1c(NC(=O)Nc2ccccc2[N+](=O)[O-])c(=O)n(-c2ccccc2)n1C` [Example 12], the IC50 [1, 3] is reported as greater than 20 µM.
For `Cc1c(NC(=O)Nc2cccc3ccccc23)c(=O)n(-c2ccccc2)n1-c1ccccc1` [Example 34], the IC50 [1, 4] was greater than 20 µM.
Work on `Cc1c(NC(=O)NC(C)(C)C)c(=O)n(-c2ccccc2)n1-c1ccccc1` [Example 35] yielded an IC50 [1, 4] of 1 µM.
For `Cc1ccc(NC(=O)Nc2c(C)n(-c3ccccc3)n(-c3ccccc3)c2=O)cc1` [Example 31], the IC50 [1, 4] was greater than 20 µM.
`Cc1c(NC(=O)Nc2ccc(Cl)cc2)c(=O)n(-c2ccccc2)n1C` [Example 3, N-(4-chlorophenyl)-N′-(1,5-dihiethyl-3-oxo-2-phenyl-2,3-dihydro-1H-pyrazol-4-yl)urea] was tested, and the IC50 [1, 3] was 2.5 µM.
Work on `Cc1c(NC(=O)Nc2cccc(Cl)c2)c(=O)n(-c2ccccc2)n1C` [Example 10] yielded an IC50 [1, 3] greater than 10 µM.
For `Cc1c(NC(=O)c2cc3ccccc3[nH]2)c(=O)n(-c2ccccc2)n1-c1ccccc1` [Example 36, N-(5-Methyl-3-oxo-1,2-diphenyl-2,3dihydro-1H-pyrazol-4yl)-1H-indole-2-carboxamide], the IC50 [2, 8] was 0.02 µM, the “Ratio A/B” value ([2]; Table 4) was 1.5 and the IC50 [1, 9] was 0.03 µM.
For `COc1ccc(NC(=O)Nc2c(C)n(C)n(-c3ccccc3)c2=O)cc1` [Example 6], the IC50 [1, 3] was greater than 10 µM.
In the case of `Cc1ccc(NC(=O)Nc2c(C)n(C)n(-c3ccccc3)c2=O)cc1` [Example 9], the IC50 [1, 3] is reported as greater than 20 µM.
`COc1ccc(NC(=O)Nc2c(C)n(-c3ccccc3)n(-c3ccccc3)c2=O)cc1` [Example 29] was tested, and the IC50 [1, 4] was greater than 20 µM.
`Cc1c(NC(=O)c2c[nH]c3ccccc23)c(=O)n(-c2ccccc2)n1-c1ccccc1` [Example 37, N-(5-Methyl-3-oxo-1,2-diphenyl-2,3-dihydro-1H-pyrazol-4yl)-1H-indole-3-carboxamide] was tested, and the IC50 [2, 8] was 2 µM, the “Ratio A/B” value ([2]; Table 4) was 1.8 and the IC50 [1, 9] was 3.5 µM.
`Cc1ccccc1NC(=O)Nc1c(C)n(-c2ccccc2)n(-c2ccccc2)c1=O` [Example 30] showed an IC50 [1, 4] greater than 20 µM.
In the case of `Cc1c(NC(=O)CCc2c[nH]c3ccccc23)c(=O)n(-c2ccccc2)n1C` [Example 17, N-(1,5-Dimethyl-3-oxo-2-phenyl-2 3dihydro-1H-pyrazol-4yl)-3-(1H-indol-3-yl)propanamide], the IC50 [2, 5] is reported as 1 µM, the “Ratio A/B” value ([2]; Table 2) is reported as 4 and the IC50 [1, 6] is reported as 4 µM.
With `COc1cccc(NC(=O)Nc2c(C)n(-c3ccccc3)n(-c3ccccc3)c2=O)c1` [Example 21, N-(5-methyl-3-oxo-1,2-diphenyl-2,3-dihydro-1H-pyrazol-4-yl)N′-3-methoxyphenylurea] the IC50 [2, 7] was 0.01 µM and the IC50 [1, 4] was 0.035 µM.
In the case of `Cc1c(NC(=O)c2cc3ccccc3[nH]2)c(=O)n(-c2ccccc2)n1C` [Example 16], the IC50 [2, 5] is reported as 0.08 µM, the “Ratio A/B” value ([2]; Table 2) is reported as 11.3 and the IC50 [1, 6] is reported as 0.9 µM.
In the case of `Cc1c(NC(=O)Cc2c[nH]c3ccccc23)c(=O)n(-c2ccccc2)n1-c1ccccc1` [Example 38], the IC50 [2, 8] is reported as 0.02 µM, the “Ratio A/B” value ([2]; Table 4) is reported as 125 and the IC50 [1, 9] is reported as 2.5 µM.
In the case of `Cc1c(NC(=O)Nc2ccccc2)c(=O)n(-c2ccccc2)n1-c1ccccc1` [Example 26, N-(5-Methyl-3oxo-1,2diphenyl-2,3-dihydro-1H-pyrazol4-yl)—N′-phenylurea], the IC50 [1, 4] is reported as 3 µM.
For `Cc1c(NC(=O)CCCc2c[nH]c3ccccc23)c(=O)n(-c2ccccc2)n1-c1ccccc1` [Example 40, N-(5Methyl-3-oxo-1,2-diphenyl-2,3-dihydro-1H-pyrazol-4yl)-4-(1H-indol-3-yl)butanamide], the “Ratio A/B” value ([2]; Table 4) was 1.
In the case of `Cc1c(NC(=O)NC2CCCCC2)c(=O)n(-c2ccccc2)n1C` [Example 14], the IC50 [1, 3] is reported as greater than 10 µM.
For `Cc1c(NC(=O)Nc2ccc(Br)cc2)c(=O)n(-c2ccccc2)n1-c1ccccc1` [Example 24, N-(4-Bromophenyl)-N′-(5-methyl-3-oxo-1,2-diphenyk-2,3-dihydro-1H-pyrazol-4-yl)urea], the IC50 [1, 4] was greater than 20 µM.
With `Cc1c(NC(=O)CCc2c[nH]c3ccccc23)c(=O)n(-c2ccccc2)n1-c1ccccc1` [Example 39, N-(5-Methyl-3-oxo-1,2-diphenyl-2,3-dihydro-1H-pyrazol-4-yl)-3-(1H-indol-3-yl)propanamide] the IC50 [2, 8] was 0.025 µM, the “Ratio A/B” value ([2]; Table 4) was 80 and the IC50 [1, 9] was 2 µM.
`Cc1c(NC(=O)Nc2ccccc2[N+](=O)[O-])c(=O)n(-c2ccccc2)n1-c1ccccc1` [Example 25, N-(5-Methyl-3-oxo-1,2-diphenyl-2,3-dihydro-1H-pyrazol-4yl)N′-2-nitrophenylurea] gave an IC50 [1, 4] of 7.5 µM.
